This note sets out measurements from PubChem BioAssay (NCI).

“And” between values parts separate entries of the source, which are not always exact repeats. Equal values may be shown once.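 These data come from cells grown in 96-well plates and exposed to compound for 48 hours at five concentrations. TGI is the concentration that stops growth completely.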

Test systems include PC-3 prostate; SK-MEL-5 melanoma; SN12C renal; SR leukemia; BT-549 breast; 786-0 renal; NCI-H226 lung; K-562 leukemia; MDA-N; T-47D breast; U251 CNS; HT29 colon; HOP-62 NSCLC; NCI-H522 lung; TK-10 renal; UACC-62 melanoma; SK-OV-3 ovarian; CCRF-CEM leukemia; MDA-MB-231 breast; SNB-19 CNS.
Holding throughout (test): NCI-60 cell line screen, 48 h

Regarding `Cc1ccc(NC(=O)CSc2nc(C)nc3c2sc(=S)n3-c2ccccc2)cc1`, the TGI is above 10 µM in the assay with PC-3 prostate; above 10 µM in the assay with SK-MEL-5 melanoma; above 10 µM with SN12C renal; above 10 µM in the assay on SR leukemia; 9.55 µM in the assay with BT-549 breast; 6.92 µM with 786-0 renal. The TGI with NCI-H226 lung was 9.43 µM; with K-562 leukemia, above 10 µM; in the assay with MDA-N, above 10 µM; with T-47D breast, above 10 µM; in the assay on U251 CNS, above 10 µM; with HT29 colon, above 10 µM. For the same molecule, the TGI with HOP-62 NSCLC was 5.08 µM; in the assay with NCI-H522 lung it was above 10 µM; with TK-10 renal, above 10 µM; in the assay with UACC-62 melanoma, above 10 µM; in the assay on SK-OV-3 ovarian it was above 10 µM; in the assay with CCRF-CEM leukemia, above 10 µM. In addition, the TGI with MDA-MB-231 breast and in the assay on SNB-19 CNS was above 10 µM throughout.

Turning to `Oc1cc(-c2ccccc2)cn2c1nc1ccccc12`, the TGI with PC-3 prostate was above 100 µM; in the assay with SK-MEL-5 melanoma it was 29.7 µM; in the assay with SN12C renal, above 100 µM; in the assay on SR leukemia, above 28.5 µM; with BT-549 breast, above 100 µM; with 786-0 renal it was above 79.7 µM. The TGI with NCI-H226 lung is above 100 µM; with K-562 leukemia, above 100 µM; in the assay on MDA-N it was above 100 µM; in the assay with T-47D breast, above 100 µM; in the assay with U251 CNS, above 100 µM; in the assay with HT29 colon it was above 77.7 µM. Further, the TGI with HOP-62 NSCLC was above 52.6 µM; in the assay on NCI-H522 lung, above 25.1 µM; in the assay with TK-10 renal it was above 100 µM; with UACC-62 melanoma, 19.5 µM; with SK-OV-3 ovarian, 6.09 µM; with CCRF-CEM leukemia it was above 100 µM. The TGI with MDA-MB-231 breast and with SNB-19 CNS was above 100 µM each time.

Regarding `CC(=O)OCC(OC(C)=O)C(OC(C)=O)C(OC(C)=O)C(C=NN(C(C)=O)S(=O)(=O)c1ccc(/C=C2\NC(=O)N(C)C2=O)cc1)OC(C)=O` (stereo not given), the TGI in the assay on PC-3 prostate was above 100 µM; with SK-MEL-5 melanoma it was 90.3 µM and 86.2 µM; in the assay with SN12C renal, above 100 µM; in the assay with SR leukemia it was 44.1 µM and 61 µM; in the assay on BT-549 breast, 49.4 µM and > 100 µM; in the assay on 786-0 renal it was 80 µM and 68.9 µM. Further, the TGI in the assay with NCI-H226 lung was 96.5 µM and > 100 µM; with K-562 leukemia it was > 100 µM and 57.1 µM; in the assay with MDA-N, above 100 µM; in the assay on T-47D breast, 76.1 µM and 91.3 µM; in the assay with U251 CNS, 66 µM and > 100 µM; in the assay on HT29 colon, above 100 µM. Also, the TGI in the assay with HOP-62 NSCLC was above 100 µM; in the assay with NCI-H522 lung, 72.9 µM; in the assay on TK-10 renal, 40.4 µM; in the assay on UACC-62 melanoma, 23.3 µM and 29.5 µM; with SK-OV-3 ovarian it was above 100 µM; with CCRF-CEM leukemia it was 41.6 µM. The TGI was > 100 µM and 96.4 µM in the assay with MDA-MB-231 breast; above 100 µM in the assay on SNB-19 CNS.

On to `Cc1nc(Nc2ccccc2Cl)sc1C(=O)CC(=O)C(=O)Nc1c(Cl)cccc1Cl`, for which the TGI with PC-3 prostate is above 100 µM; in the assay with SK-MEL-5 melanoma it was above 100 µM; with SN12C renal, above 100 µM; in the assay on SR leukemia it was 68.6 µM; in the assay on BT-549 breast, 86.2 µM; with 786-0 renal it was 66 µM. The TGI with NCI-H226 lung is 49.7 µM; in the assay with K-562 leukemia it was above 100 µM; in the assay with MDA-N, above 100 µM; in the assay on T-47D breast, 71.6 µM; in the assay with U251 CNS it was 64.3 µM; in the assay with HT29 colon, above 100 µM. Also, the TGI was above 100 µM with HOP-62 NSCLC; 60.4 µM with NCI-H522 lung; above 100 µM in the assay on TK-10 renal; above 100 µM in the assay with UACC-62 melanoma; above 100 µM in the assay with SK-OV-3 ovarian; above 100 µM in the assay with CCRF-CEM leukemia. For the same molecule, the TGI was 42.9 µM with MDA-MB-231 breast and above 100 µM with SNB-19 CNS.

On to `COc1c(C)c2c(c(=O)c3c(C)cccc3n2C)c2c1c(=O)c1c(C)cccc1n2C`, for which the TGI in the assay on PC-3 prostate, in the assay on SK-MEL-5 melanoma, in the assay with SN12C renal, in the assay on SR leukemia, with BT-549 breast and in the assay with 786-0 renal was above 10 µM each time. The TGI with NCI-H226 lung, in the assay on K-562 leukemia, in the assay with MDA-N, with T-47D breast, with U251 CNS and with HT29 colon was above 10 µM each time. The TGI in the assay on HOP-62 NSCLC, in the assay with NCI-H522 lung, in the assay on TK-10 renal, in the assay on UACC-62 melanoma, in the assay on SK-OV-3 ovarian and in the assay on CCRF-CEM leukemia was above 10 µM throughout. The TGI with MDA-MB-231 breast and in the assay on SNB-19 CNS was above 10 µM in each case.

On to `Cc1nc2sc3ccccc3n2c(=O)c1N=Nc1ccc(Br)cc1`, for which the TGI in the assay on PC-3 prostate, in the assay on SK-MEL-5 melanoma, in the assay on SN12C renal, with SR leukemia, in the assay on BT-549 breast and in the assay with 786-0 renal was above 100 µM each time. Also, the TGI with NCI-H226 lung, in the assay on K-562 leukemia, in the assay on MDA-N, with T-47D breast, with U251 CNS and in the assay with HT29 colon was above 100 µM throughout. Also, the TGI in the assay with HOP-62 NSCLC, with NCI-H522 lung, in the assay with TK-10 renal, in the assay with UACC-62 melanoma, in the assay with SK-OV-3 ovarian and in the assay on CCRF-CEM leukemia was above 100 µM throughout. Also, the TGI in the assay with MDA-MB-231 breast and in the assay on SNB-19 CNS was above 100 µM each time.

Consider `COC1CC(OC2C(C)OC(OC3C(C)OC(OC4C(O)CC(O[C@H]5CC[C@@]6(C)C(=CC[C@]7(O)[C@@H]6C[C@@H](OC(=O)/C=C/c6ccccc6)[C@@]6(C)[C@]7(O)CC[C@@]6(O)C(C)=O)C5)OC4C)CC3OC)CC2OC)OC(C)C1O` (stereo not given in full), for which the TGI in the assay with PC-3 prostate, in the assay with SK-MEL-5 melanoma, in the assay with SN12C renal, in the assay with SR leukemia, in the assay on BT-549 breast and in the assay with 786-0 renal was above 6.25 µM each time. Moreover, the TGI in the assay with NCI-H226 lung, with K-562 leukemia, in the assay with MDA-N, with T-47D breast, in the assay on U251 CNS and in the assay on HT29 colon was above 6.25 µM each time. For the same molecule, the TGI in the assay on HOP-62 NSCLC, with NCI-H522 lung, with TK-10 renal, in the assay with UACC-62 melanoma, with SK-OV-3 ovarian and in the assay on CCRF-CEM leukemia was above 6.25 µM in each case. Moreover, the TGI in the assay on MDA-MB-231 breast and in the assay on SNB-19 CNS was above 6.25 µM throughout.

As for `CN(CCCCN1CCCC1)CCCN(C)C(=O)Cc1ccc(Cl)c(Cl)c1`, the TGI with PC-3 prostate turned out to be 52.7 µM; with SK-MEL-5 melanoma, 23.8 µM; in the assay on SN12C renal, 37.8 µM; in the assay on SR leukemia, 15.6 µM; with BT-549 breast it was 32.5 µM; in the assay on 786-0 renal it was 26.1 µM. For the same molecule, the TGI with NCI-H226 lung stood at 51.9 µM; in the assay on K-562 leukemia, 11.6 µM; in the assay with MDA-N it was 15.5 µM; in the assay on T-47D breast, 44.2 µM; with U251 CNS it was 32.4 µM; in the assay on HT29 colon it was 18.1 µM. The TGI was 34.4 µM in the assay with HOP-62 NSCLC; 27.9 µM in the assay on NCI-H522 lung; 33.7 µM with TK-10 renal; 16.9 µM with UACC-62 melanoma; above 100 µM in the assay on SK-OV-3 ovarian; 20.9 µM in the assay with CCRF-CEM leukemia. For the same molecule, the TGI was 26.1 µM in the assay on MDA-MB-231 breast and 57.2 µM with SNB-19 CNS.

As to `COc1ccc(/C=C/C(=O)/C=C/c2ccc(OC)cc2)cc1`, the TGI in the assay with PC-3 prostate was above 100 µM; in the assay on SK-MEL-5 melanoma, above 100 µM; with SN12C renal it was above 100 µM; in the assay on SR leukemia, 68.4 µM; with BT-549 breast, above 100 µM; in the assay with 786-0 renal, above 100 µM. For the same molecule, the TGI is 98.3 µM with NCI-H226 lung; above 100 µM in the assay on K-562 leukemia; 49 µM in the assay with MDA-N; above 100 µM in the assay with T-47D breast; 68.6 µM with U251 CNS; above 100 µM with HT29 colon. Moreover, the TGI in the assay with HOP-62 NSCLC, in the assay on NCI-H522 lung, in the assay with TK-10 renal, in the assay on UACC-62 melanoma, in the assay on SK-OV-3 ovarian and with CCRF-CEM leukemia was above 100 µM each time. Further, the TGI with MDA-MB-231 breast and in the assay with SNB-19 CNS was above 100 µM throughout.

For the molecule `C=CCN1C(=O)/C(=C/c2ccc(OC)cc2)NC1=S`, the TGI in the assay on PC-3 prostate, in the assay on SK-MEL-5 melanoma, with SN12C renal, in the assay on SR leukemia, in the assay on BT-549 breast and in the assay with 786-0 renal was above 100 µM throughout. Further, the TGI in the assay with NCI-H226 lung, with K-562 leukemia, in the assay on MDA-N, in the assay with T-47D breast, with U251 CNS and in the assay on HT29 colon was above 100 µM in each case. In addition, the TGI with HOP-62 NSCLC was above 100 µM; in the assay on NCI-H522 lung, above 100 µM; in the assay with TK-10 renal, above 100 µM; in the assay on UACC-62 melanoma, above 100 µM; in the assay with SK-OV-3 ovarian it was above 100 µM; with CCRF-CEM leukemia it was 13.1 µM. The TGI in the assay on MDA-MB-231 breast and with SNB-19 CNS was above 100 µM each time.

For `COC(=O)c1sc2ncc3c(c2c1N)CCCCCC3`, the TGI with PC-3 prostate, with SK-MEL-5 melanoma, with SN12C renal, in the assay on SR leukemia, in the assay with BT-549 breast and with 786-0 renal was above 100 µM each time. Moreover, the TGI in the assay with NCI-H226 lung, in the assay with K-562 leukemia, with MDA-N, in the assay on T-47D breast, in the assay on U251 CNS and in the assay with HT29 colon was above 100 µM throughout. The TGI with HOP-62 NSCLC, in the assay on NCI-H522 lung, in the assay on TK-10 renal, in the assay with UACC-62 melanoma, with SK-OV-3 ovarian and in the assay on CCRF-CEM leukemia was above 100 µM in each case. Moreover, the TGI with MDA-MB-231 breast and in the assay with SNB-19 CNS was above 100 µM in each case.

Turning to `COc1cc(/C=C2\C[C@H]3[C@@H]4CC=C5C=C(N6CCCC6)CC[C@]5(C)[C@H]4CC[C@]3(C)C2=O)cc(OC)c1OC`, the TGI was 15.2 µM in the assay with PC-3 prostate; above 27.9 µM in the assay with SK-MEL-5 melanoma; 12.1 µM in the assay with SN12C renal; above 100 µM in the assay on SR leukemia; 5.82 µM in the assay with BT-549 breast; above 24.2 µM in the assay on 786-0 renal. In addition, the TGI was 34.3 µM in the assay on NCI-H226 lung; above 100 µM in the assay with K-562 leukemia; 4.2 µM in the assay on MDA-N; 11.1 µM with T-47D breast; 4.7 µM in the assay with U251 CNS; 8.67 µM with HT29 colon. The TGI was 7.17 µM in the assay with HOP-62 NSCLC; 2.88 µM in the assay on NCI-H522 lung; 21.4 µM with TK-10 renal; 5.46 µM in the assay with UACC-62 melanoma; 22.1 µM in the assay on SK-OV-3 ovarian; above 100 µM in the assay on CCRF-CEM leukemia. The TGI in the assay with MDA-MB-231 breast was 6.62 µM; in the assay with SNB-19 CNS, 18.4 µM.
